Experimental data as given in patent publication US8299060B2, “Trans-4-[[(5S)-5-[[[3,5-bis(trifluoromethyl)phenyl]methyl] (2-methyl-2H-tetrazol-5-yl)amino]-2,3,4,5-tetrahydro-7,9-dimethyl-1H-1-benzazepin-1-yl]methyl]-cyclohexanecarboxylic acid” (Eli Lilly and Company, priority 2009, dated 2012).
Marks after values point to notes of the source that are not given here.

Columns and labels:
[1] = Hygroscopicity and degradation on storage at ambient temperature; type: physicochemical; settings: stored at ambient temperature
[2] = Chemical stability: acid stability in 0.1N HCl at 40° C.; type: physicochemical
Experimental: Table 6 below lists the chemical stability of BCCA free acid as well as that of selected Examples 31, 89, 153, and 175 disclosed in WO 06/002342, renumbered below as compounds 13, 14, 15, and 16, respectively. […] This increased acid stability for BCCA free acid is not taught and cannot be predicted considering WO 06/002342.
Sample preparations: 1) Compound Stock: 0.9 mg/mL in ACN; 2) 100 μL stock+700 μL ACN+1 mL media (0.1N HCl, 50 mM PO4, pH 8, and 0.3% H2O2); 3) Place vials in heated (40° C.) autosampler, inject at 4 hour intervals for 16 or 24 hours.
Column: Alltech Alltima Phenyl, 3 μm, 4.6×150 mm or Waters XTerra MS C18, 3.5 μm, 4.6×150 mm Column temperature: 50° C., Injection volume: 10 μL. Detection: UV @ 226, 254 or 266 nm (depending on compound) Flow rate: 1.5 mL/min. Mobile phase: 0.1% TFA in 50% water/50% ACN (may need to adjust % ACN to keep compound peak retention time ˜5 min.) final sample conc. 0.05 mg/mL; ACN content 44%.

[3] = IV and PO pharmacokinetics in male Sprague Dawley rats; type: in vivo; settings: 3 mg/kg PO; for F % (AUC Extrap.) ± sd: 1 mg/kg IV; for Cmax / Tmax: rat, plasma
Experimental: This following is to determine the pharmacokinetic parameters, including oral bioavailability, following a single 1 mg/kg intravenous bolus or a 3 mg/kg oral dose administration of the compound to male Sprague Dawley rats (n=4) in a crossover study design. The intravenous vehicle is 20% solutol microemulsion/80% deionized water. The oral vehicle is povidone USP 10%/SLS 0.5%/QS deionized water. In the intravenous arm, blood samples are collected at 0.08, 0.25, 0.5, 1, 2, 5, 8, 12, and 24 hours post-dose. In the oral arm, blood samples are collected at 0, 0.25, 0.5, 1, 2, 5, 8, 12, and 24 hours post-dose. Plasma is obtained by centrifugation, placed on ice, and frozen until samples are shipped on dry ice to Bioanalytical Systems, Inc. (BASi; West Lafayette, Ind.) for bioanalytical analysis. Concentrations of BCCA are determined by LC/MS/MS and pharmacokinetic parameters are calculated using a validated software program (Watson, Version 7.1). Other vehicles can be used to evaluate the bioavailability of BCCA including: 1% w/v sodium carboxymethyl cellulose, 0.25% w/v polysorbate 80 (Tween 80) and 0.05% 0.05% Dow Corning Antifoam 1510-US in purified water or; 1% w/v sodium carboxymethyl cellulose, 0.5% w/v sodium laurate sulfate, and 0.05% 0.05% Dow Corning Antifoam 1510-US in purified water in purified water each used either with or without sonification to facilitate dissolution of the compounds.

HDL cholesterol = experiment: In vivo assay of plasma lipids (HDL cholesterol elevation); parameters: species or system transgenic mice that express human CETP; settings: 30 mpk oral dose, 79.5% corn oil, 20% oleic acid, 0.5% Lubrafil, CETP and Apo A1 heterozygote mice
Experimental: Syrian Golden Hamsters, which express endogenous CETP, can be used to assess the activity of the compounds in vivo. Test compounds are administered orally 30 mpk dose in a 79.5% corn oil, 20% oleic acid, 0.5% Lubrafil vehicle to a strain of transgenic mice that express human CETP (female or male CETP and Apo A1 heterozygote mice Taconic, Germantown, N.Y.). At various times after dosing, ranging from 4 h to 48 h, blood/plasma can be obtained. The CETP activity can be determined by a method similar to that described above for the in vitro CETP activity assay, with the modification that plasma from the treated animals is used as the CETP source in the assay.
Activity of compounds of this invention in vivo can be evaluated by comparing the level of elevation of HDL cholesterol relative to a control by a given amount of a compound in a CETP-containing animal species. The test compounds are administered as described above for the in vivo assay of CETP activity. […] The HDL cholesterol levels in the serum can be determined by known procedures using HDL-C plus reagents (Roche/Hitachi, Indianapolis, Ind.) with a clinical chemistry analyzer (Roche/Hitachi, Indianapolis, Ind.). Additional serum lipids can be analyzed by enzymatic methods. Lipids in the VLDL, LDL and HDL fractions are analyzed by enzymatic methods after precipitation or size exclusion chromatography. […]

human CETP = biological target: T1, human CETP (Homo sapiens, UniProt P11597); experiment: In vivo assay of CETP activity; parameters: species or system transgenic mice that express human CETP; settings: 30 mpk oral dose, 79.5% corn oil, 20% oleic acid, 0.5% Lubrafil; CETP and Apo A1 heterozygote mice; 8 hr; read-out: % CETP Inhib 8 hr
T1 construct: plasma from the treated animals is used as the CETP source in the assay; tissue Taconic; host or cells: plasma of transgenic mice expressing human CETP (CETP and Apo A1 heterozygotes)
T1 sequence (P11597 18-493): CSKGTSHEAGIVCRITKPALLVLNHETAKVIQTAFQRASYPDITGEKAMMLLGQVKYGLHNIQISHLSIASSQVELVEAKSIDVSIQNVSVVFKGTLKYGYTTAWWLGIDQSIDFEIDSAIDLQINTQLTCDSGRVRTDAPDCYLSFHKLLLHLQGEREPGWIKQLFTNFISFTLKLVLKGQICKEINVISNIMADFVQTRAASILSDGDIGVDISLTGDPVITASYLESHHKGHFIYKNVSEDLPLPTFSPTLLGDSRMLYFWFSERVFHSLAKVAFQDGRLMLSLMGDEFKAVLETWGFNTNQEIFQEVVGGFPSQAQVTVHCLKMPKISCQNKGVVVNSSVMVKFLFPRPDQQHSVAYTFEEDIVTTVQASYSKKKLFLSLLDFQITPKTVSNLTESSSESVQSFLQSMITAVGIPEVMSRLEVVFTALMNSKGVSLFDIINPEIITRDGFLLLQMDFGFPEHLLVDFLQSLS
Description: An in vitro Scintillation Proximity Assay (SPA) has been used to evaluate the ability of compounds of this invention to inhibit the transfer of radiolabeled cholesterol esters between HDL and LDL. This assay monitors the inhibition of the transfer of [^3H]cholesterol esters from HDL (Amersham) to biotinylated LDL (Amersham) by a CETP source. The CETP source for this assay can be produced by AV-12 cells that have been created to express human CETP. The radiolabeled cholesterol ester is transferred in a HEPES-NaCl based buffer, after thirty minutes incubation the reaction is stopped and the biotinylated LDL is bound to streptavidin/scintillant coated SPA beads (Amersham). The radioactive signal is measured in a Packard 96-well scintillation TopCounter with window settings fully open. A decrease in radioactive signal from the LDL relative to a standard indicates the ability of compounds to inhibit the activity of CETP.
Syrian Golden Hamsters, which express endogenous CETP, can be used to assess the activity of the compounds in vivo. […] The CETP activity can be determined by a method similar to that described above for the in vitro CETP activity assay, with the modification that plasma from the treated animals is used as the CETP source in the assay.

Structure (SMILES)	hygroscopicity [1]	Acid Stability, percent remaining, 8 hrs [2]	Acid Stability, percent remaining, 24 hrs [2]	further results
Cc1cc(C)c2c(c1)[C@@H](N(Cc1cc(C(F)(F)F)cc(C(F)(F)F)c1)c1nnn(C)n1)CCCN2C[C@H]1CC[C@H](C(=O)O)CC1.O (relative stereo) [Example 3, Trans-4-[[(5S)-5-[[[3,5-bis(trifluoromethyl)phenyl]methyl](2-methyl-2H-tetrazol-5-yl)amino]-2,3,4,5-tetrahydro-7,9-dimethyl-1H-1-benzazepin-1-yl]methyl]-cyclohexanecarboxylic acid•Hydrate]	–	–	–	degradation on storage [1]: minor or very little degradation
Cc1cc(C)c2c(c1)[C@@H](N(Cc1cc(C(F)(F)F)cc(C(F)(F)F)c1)c1nnn(C)n1)CCCN2C[C@H]1CC[C@H](C(=O)O)CC1.O (relative stereo) [Example 5, Trans-4-[[(5S)-5-[[[3,5-bis(trifluoromethyl)phenyl]methyl](2-methyl-2H-tetrazol-5-yl)amino]-2,3,4,5-tetrahydro-7,9-dimethyl-1H-1-benzazepin-1-yl]methyl]-cyclohexanecarboxylic acid hydrate in crystalline form]	non-hygroscopic	–	–	–
CC(C)(C)N.CC(C)O.Cc1cc(C)c2c(c1)[C@@H](N(Cc1cc(C(F)(F)F)cc(C(F)(F)F)c1)c1nnn(C)n1)CCCN2C[C@H]1CC[C@H](C(=O)O)CC1 (relative stereo) [Example 14, Trans-4-[[(5S)-5-[[[3,5-bis(trifluoromethyl)phenyl]methyl](2-methyl-2H-tetrazol-5-yl)amino]-2,3,4,5-tetrahydro-7,9-dimethyl-1H-1-benzazepin-1-yl]methyl]-cyclohexanecarboxylic acid tert-butylamine isopropyl alcohol (1:1:1) solvate]	non-hygroscopic	–	–	–
CC(C)(C)N.CCO.Cc1cc(C)c2c(c1)[C@@H](N(Cc1cc(C(F)(F)F)cc(C(F)(F)F)c1)c1nnn(C)n1)CCCN2C[C@H]1CC[C@H](C(=O)O)CC1.Cc1cc(C)c2c(c1)[C@@H](N(Cc1cc(C(F)(F)F)cc(C(F)(F)F)c1)c1nnn(C)n1)CCCN2C[C@H]1CC[C@H](C(=O)O)CC1 (relative stereo) [Example 15, Trans-4-[[(5S)-5-[[[3,5-bis(trifluoromethyl)phenyl]methyl](2-methyl-2H-tetrazol-5-yl)amino]-2,3,4,5-tetrahydro-7,9-dimethyl-1H-1-benzazepin-1-yl]methyl]-cyclohexanecarboxylic acid hemi tert-butylamine salt hemi ethanol (2:1:1) solvate in crystalline form]	non-hygroscopic	–	–	–
Cc1cc2c(cc1C(F)(F)F)N(C[C@H]1CC[C@H](CC(=O)O)CC1)CCC[C@@H]2N(Cc1cc(C(F)(F)F)cc(C(F)(F)F)c1)c1nnn(C)n1 [Compound 13, (4-{5-[(3,5-Bis-trifluoromethyl-benzyl)-(2-methyl-2H-tetrazol-5-yl)-amino]-7-methyl-8-trifluoromethyl-2,3,4,5-tetrahydro-benzo[b]azepin-1-ylmethyl}-cyclohexyl)-acetic acid]	–	14.5%	0%	–
Cc1cc2c(cc1C(F)(F)F)N(Cc1ccc(C(=O)O)cc1)CCC[C@@H]2N(Cc1cc(C(F)(F)F)cc(C(F)(F)F)c1)c1nnn(C)n1 [Compound 14, (S)-4-{5-[(3,5-Bis-trifluoromethyl-benzyl)-(2-methyl-2H-tetrazol-5-yl)-amino]-7-methyl-8-trifluoromethyl-2,3,4,5-tetrahydro-benzo[b]azepin-1-ylmethyl}-benzoic acid]	–	52%	13.4%	–
Cc1cc2c(c(C)c1C(F)(F)F)N(CC1CCC(CC(=O)O)CC1)CCC[C@@H]2N(Cc1cc(C(F)(F)F)cc(C(F)(F)F)c1)c1nnn(C)n1 (stereo partly drawn) [Compound 15, reference compound]	–	100.4%	99.1%	F % (AUC Extrap.) ± sd [3]: 8 ± 3%; Cmax [3]: 85 ± 43 ng/mL; Tmax [3]: 5 h
Cc1cc2c(cc1C(F)(F)F)N(C1CCC(C(=O)O)CC1)CCC[C@@H]2N(Cc1cc(C(F)(F)F)cc(C(F)(F)F)c1)c1nnn(C)n1 (stereo partly drawn) [Compound 16]	–	37.8%	–	Acid Stability, percent remaining after 16 hrs ([2]; 16 hrs (footnote *)): 13.4* Percent
Cc1cc(C)c2c(c1)[C@@H](N(Cc1cc(C(F)(F)F)cc(C(F)(F)F)c1)c1nnn(C)n1)CCCN2C[C@H]1CC[C@H](C(=O)O)CC1 [Ex 1, Trans-4-[[(5S)-5-[[[3,5-bis(trifluoromethyl)phenyl]methyl](2-methyl-2H-tetrazol-5-yl)amino]-2,3,4,5-tetrahydro-7,9-dimethyl-1H-1-benzazepin-1-yl]methyl]-cyclohexanecarboxylic acid]	non-hygroscopic	97.3%	91.3%	F % (AUC Extrap.) ± sd [3]: 38 ± 4%; Cmax [3]: 208 ± 41 ng/mL; Tmax [3]: 3.5 ± 1.7 h; % HDL cholesterol increase at 8 hr (HDL cholesterol): 129.7. %; inhibition at 30 mg/kg (human CETP): 98.6%
[O-][n+]1ccccc1[S-].[O-][n+]1ccccc1[S-].[Zn+2] [zinc salt]	essentially non-hygroscopic	–	–	–
